Data: patent publication US11253525B2, “Inhibitors of indoleamine 2,3-dioxygenase and methods of their use” (BRISTOL-MYERS SQUIBB COMPANY, priority 2018, dated 2022)
Like-named read-outs stand apart in the source and are kept apart here.

Key:
human IDO1 = target: T1, human IDO1 (Homo sapiens, UniProt P14902); test: HEK293 cell-based indoleamine 2,3-dioxygenase (IDO) assay; settings: human IDO1/HEK293 cells, 20 hours
T1 construct: expressed in transfected cells
Method: Assessment of Inhibitor Activity in HEK293 Cell-Based Indoleamine 2,3-Dioxygenase (IDO) Assay
HEK293 cells were transfected with a pCDNA-based mammalian expression vector harboring human IDO1 cDNA (NM 002164.2) by electroporation. They were cultured in medium (DMEM with 10% FBS) containing 1 mg/ml G418 for two weeks. Clones of HEK293 cells that stably expressed human IDO1 protein were selected and expanded for IDO inhibition assay.
The human IDO1/HEK293 cells were seeded at 10,000 cells per 50 μL per well with RPMI/phenol red free media contains 10% FBS in a 384-well black wall clear bottom tissue culture plate (Matrix Technologies LLC) 100 nL of certain concentration of compound was then added to each well using ECHO liquid handling systems. The cells were incubated for 20 hours in 37° C. incubator with 5% CO2.
The compound treatments were stopped by adding trichloroacetic acid (Sigma-Aldrich) to a final concentration at 0.2%. The cell plate was further incubated at 50° C. for 30 minute. The equal volume supernatant (20 μL) and 0.2% (w/v) Ehrlich reagent (4-dimethylaminobenzaldehyde, Sigma-Aldrich) in glacial acetic acid were mixed in a new clear bottom 384-well plate. This plate was then incubated at room temperature for 30 minute. The absorbance at 490 nm was measured on Envision plate reader.
Compound IC50 values were calculated using the counts of 500 nM of a reference standard treatment as one hundred percent inhibition, and counts of no compound but DMSO treatment as zero percent inhibition.

[1] = target: T2, indoleamine 2,3-dioxygenase (IDO) (Homo sapiens, UniProt P14902); test: HeLa cell-based indoleamine 2,3-dioxygenase (IDO) assay, kynurenine production; settings: HeLa cells, IFNγ 25 ng/mL, 48 hour incubation
T2 construct: replaced with media containing IFNγ (#285-IF/CF, R&D Systems) at a final concentration of 25 ng/mL; endogenous in cells; host or cells: HeLa (ATCC CCL-2), IFN-gamma stimulated
Method: Assessment of Inhibitor Activity in HeLa Cell-Based Indoleamine 23-Dioxygenase (IDO) Assay
Cells were maintained in a humidified incubator at 37° C. in 5% CO2.
IDO activity was assessed as a function of kynurenine production as follows: HeLa cells were seeded in a 96-well culture plate at a density of 5,000 cells/well and allowed to equilibrate overnight. […] A serial dilution of each test compound was added to the cells in a total volume of 200 μL of culture medium. After a further 48 hour incubation, 170 μL of supernatant was transferred from each well to a fresh 96-well plate. 12.1 μL of 6.1N trichloroacetic acid (#T0699, Sigma-Aldrich) was added to each well and mixed, followed by incubation at 65° C. for 20 minutes to hydrolyze N-formylkynurenine, the product of indoleamine 2,3-dioxygenase, to kynurenine. The reaction mixture was then centrifuged for 10 mins at 500×g to sediment the precipitate. 100 μL of the supernatant was transferred from each well to a fresh 96-well plate. […] Kynurenine concentrations were determined by measuring absorbance at 480 nm and calibrating against an L-kynurenine (#K8625, Sigma-Aldrich) standard curve using a SPECTRAMAX® M2e microplate reader (Molecular Devices). The percentage activity at each inhibitor concentration was determined and IC50 values assessed using nonlinear regression.

[2] = read-out: IDO1 HEK Human IC50 class (A < 50, B < 250, C < 2000)
[3] = read-out: IDO Hela IC50 class (A < 50, B < 250, C < 2000)

T1 sequence (P14902 whole entry): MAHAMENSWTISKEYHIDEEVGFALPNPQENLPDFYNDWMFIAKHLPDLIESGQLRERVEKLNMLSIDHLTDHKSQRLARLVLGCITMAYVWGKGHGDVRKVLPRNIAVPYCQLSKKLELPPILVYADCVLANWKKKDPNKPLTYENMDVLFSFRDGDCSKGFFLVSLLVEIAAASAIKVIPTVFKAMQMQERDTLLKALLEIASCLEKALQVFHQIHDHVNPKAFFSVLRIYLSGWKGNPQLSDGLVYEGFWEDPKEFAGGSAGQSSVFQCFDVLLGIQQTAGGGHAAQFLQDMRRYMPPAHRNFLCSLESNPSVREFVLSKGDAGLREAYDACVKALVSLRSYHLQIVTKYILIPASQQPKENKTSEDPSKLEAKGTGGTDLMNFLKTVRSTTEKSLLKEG
T2 sequence (P14902 whole entry): as above

Row | Molecule | IC50 ([1]; read-out: IDO Hela IC50) | IC50 [1, 3] | other results
1 | CCOC(C)(C)c1ccc([C@H](CC)CC(=O)O)cc1NC(=O)Nc1ccc(C)cc1 (single isomer, unassigned) [Example 1] |  |  | IC50 (human IDO1; [2]): 0.25 to 2 µM
2 | CCOC(C)(C)c1ccc([C@@H](CC)CC(=O)O)cc1NC(=O)Nc1ccc(C)cc1 (single isomer, unassigned) [Example 2] |  |  | IC50 (human IDO1; read-out: IDO1 HEK Human IC50): 0.224 µM; IC50 (human IDO1; [2]): 0.25 to 2 µM
3 | CCOC(C)(C)c1ccc(C(CC)CC(=O)O)cc1Nc1ccc2nc(C)sc2c1 (single isomer, unassigned) [Example 3] |  |  | IC50 (human IDO1; [2]): 0.25 to 2 µM
4 | CCOC(C)(C)c1ccc([C@@H](CC)CC(=O)O)cc1Nc1ccc2nc(C)sc2c1 (single isomer, unassigned) [Example 4] |  |  | IC50 (human IDO1; [2]): 0.25 to 2 µM
5 | CCOC(C)(C)c1ccc([C@@H](CC)CC(=O)O)cc1Nc1ccc(Cl)cc1 (single isomer, unassigned) [Example 5] |  |  | IC50 (human IDO1; read-out: IDO1 HEK Human IC50): 0.095 µM
6 | CCOc1ncc(Nc2cc([C@@H](CC)CC(=O)O)ccc2C(C)(C)OCC)cn1 (single isomer, unassigned) [Example 6] |  |  | IC50 (human IDO1; [2]): 0.25 to 2 µM
7 | CCOc1ncc(Nc2cc([C@H](CC)CC(=O)O)ccc2[C@@H](OC)C(F)(F)F)cn1 (single isomer, unassigned) [Example 91] | 0.03 µM |  | 
8 | CC[C@H](CC(=O)O)c1ccc([C@@H](OC)C(F)(F)F)c(Nc2cnc(C(F)(F)F)nc2)c1 (single isomer, unassigned) [Example 92] | 0.01 µM |  | 
9 | CC[C@H](CC(=O)O)c1ccc([C@H](OC)C(F)(F)F)c(Nc2ccc(C#N)cc2)c1 (single isomer, unassigned) [Example 93] |  | < 0.05 µM | 
10 | CC[C@H](CC(=O)O)c1ccc([C@H](OC)C(F)(F)F)c(Nc2cnc(C)nc2)c1 (single isomer, unassigned) [Example 94] | 0.07 µM |  | 
11 | CC[C@H](CC(=O)O)c1ccc([C@H](OC)C(F)(F)F)c(Nc2cnc(C(F)(F)F)nc2)c1 (single isomer, unassigned) [Example 96] | 0.01 µM |  | 
12 | CC[C@@H](CC(=O)O)c1ccc([C@H](OC)C(F)(F)F)c(Nc2ccc(C#N)cc2)c1 (single isomer, unassigned) [Example 97] |  | < 0.05 µM | 
13 | CC[C@@H](CC(=O)O)c1ccc([C@H](OC)C(F)(F)F)c(Nc2cnc(C)nc2)c1 (single isomer, unassigned) [Example 98] | 0.15 µM |  | 
14 | CCOc1ncc(Nc2cc([C@@H](CC)CC(=O)O)ccc2[C@H](OC)C(F)(F)F)cn1 (single isomer, unassigned) [Example 99] | 0.03 µM |  | 
15 | CC[C@@H](CC(=O)O)c1ccc([C@H](OC)C(F)(F)F)c(Nc2cnc(C(F)(F)F)nc2)c1 (single isomer, unassigned) [Example 100] | 0.01 µM |  | 
16 | CC[C@@H](c1ccc([C@@H](COC)CC(=O)O)cc1Nc1ccc(C#N)cc1)N1CCOCC1 (single isomer, unassigned) [Example 101-1] |  | < 0.05 µM | 
17 | CC[C@H](c1ccc([C@@H](COC)CC(=O)O)cc1Nc1ccc(C#N)cc1)N1CCOCC1 (single isomer, unassigned) [Example 101-2] |  | 0.25 to 2 µM | 
18 | CCOc1ncc(Nc2cc([C@@H](COC)CC(=O)O)ccc2[C@H](CC)N2CCOCC2)cn1 (single isomer, unassigned) [Example 103] | 0.2 µM |  | 
19 | CC[C@@H](c1ccc([C@@H](COC)CC(=O)O)cc1Nc1ccc(COC)nc1)N1CCOCC1 (single isomer, unassigned) [Example 104] |  | 0.25 to 2 µM | 
20 | CC[C@@H](c1ccc([C@@H](COC)CC(=O)O)cc1Nc1ccc(F)cc1)N1CCOCC1 (single isomer, unassigned) [Example 106] | 0.01 µM |  | 
21 | CCOc1ncc(Nc2cc([C@@H](COC)CC(=O)O)ccc2[C@@H](CC)N2CCOCC2)cn1 (single isomer, unassigned) [Example 108] |  | 0.25 to 2 µM | 

Row | Molecule | IC50 ([1]; read-out: IDO Hela IC50) | IC50 [1, 3] | other results
22 | CC[C@H](c1ccc([C@@H](COC)CC(=O)O)cc1Nc1ccc(F)cc1)N1CCOCC1 (single isomer, unassigned) [Example 111] |  | 0.25 to 2 µM | 
23 | CCO[C@H](c1ccc(F)cc1)c1cc(Nc2ccc(Cl)cc2)cc([C@@H](CC)CC(=O)O)c1 (single isomer, unassigned) [Example 113-2] |  |  | IC50 (human IDO1; read-out: IDO1 HEK Human IC50): 0.131 µM
24 | CCO[C@@H](c1ccc(F)cc1)c1cc(Nc2ccc3nc(C)sc3c2)cc([C@@H](CC)CC(=O)O)c1 (single isomer, unassigned) [Example 115] |  |  | IC50 (human IDO1; read-out: IDO1 HEK Human IC50): 1.2 µM
25 | CCO[C@H](c1ccc(F)cc1)c1cc(Nc2ccc3nc(C)sc3c2)cc([C@H](CC)CC(=O)O)c1 (single isomer, unassigned) [Example 116] |  |  | IC50 (human IDO1; read-out: IDO1 HEK Human IC50): 0.108 µM
26 | CCO[C@H](c1ccc(F)cc1)c1cc(Nc2ccc3nc(C)sc3c2)cc([C@@H](CC)CC(=O)O)c1 (single isomer, unassigned) [Example 117] |  |  | IC50 (human IDO1; [2]): 0.25 to 2 µM
27 | CCOc1ncc(Nc2cc([C@@H](CC)CC(=O)O)ccc2[C@H](CC)N2CCOCC2)cn1 (single isomer, unassigned) [Example 118-1] | 0.75 µM |  | 
28 | CCOc1ncc(Nc2cc([C@@H](CC)CC(=O)O)ccc2[C@H](CC)N2CCOCC2)cn1 (single isomer, unassigned) [Example 118-2] | 0.43 µM |  | 
29 | CCOc1ncc(Nc2cc([C@@H](CC)CC(=O)O)ccc2[C@H](CC)N2CCOCC2)cn1 (single isomer, unassigned) [Example 118-3] |  | < 0.05 µM | 
30 | CCOc1ncc(Nc2cc([C@@H](CC)CC(=O)O)ccc2[C@H](CC)N2CCOCC2)cn1 (single isomer, unassigned) [Example 118-4] | 0.01 µM |  | 
31 | CCc1ncc(Nc2cc([C@H](CC)CC(=O)O)ccc2[C@@H](CC)N2CCOCC2)cn1 (single isomer, unassigned) [Example 119] | 0.02 µM |  | 
32 | CC[C@@H](CC(=O)O)c1ccc([C@@H](CC)N2CCOCC2)c(Nc2ccc(C#N)cc2)c1 (single isomer, unassigned) [Example 124] | 0.07 µM |  | 
33 | CCOc1ncc(Nc2cc([C@H](CC)CC(=O)O)ccc2[C@@H](CC)C2CCOCC2)cn1 (single isomer, unassigned) [Example 125-1] | 0.04 µM |  | 
34 | CCOc1ncc(Nc2cc([C@H](CC)CC(=O)O)ccc2[C@H](CC)C2CCOCC2)cn1 (single isomer, unassigned) [Example 125-2] |  | < 0.05 µM | 
35 | CCc1ncc(Nc2cc([C@H](CC)CC(=O)O)ccc2[C@@H](CC)C2CCOCC2)cn1 (single isomer, unassigned) [Example 126-1] |  | < 0.05 µM | 
36 | CC[C@H](CC(=O)O)c1ccc([C@@H](CC)C2CCOCC2)c(Nc2ccc(COC)nc2)c1 (single isomer, unassigned) [Example 127] |  | < 0.05 µM | 
37 | CCc1ncc(Nc2cc([C@H](CC)CC(=O)O)ccc2[C@H](CC)C2CCOCC2)cn1 (single isomer, unassigned) [Example 128] | 0.12 µM |  | 
38 | CC[C@H](CC(=O)O)c1ccc([C@@H](CC)C2CCOCC2)c(Nc2ccc(COC)nc2)c1 (single isomer, unassigned) [Example 129] | 0.31 µM | 0.05 to 0.25 µM | 
39 | CC[C@@H](CC(=O)O)c1ccc([C@@H](CC)N2CCOCC2)c(Nc2ccc(Cl)cc2)c1 (single isomer, unassigned) [Example 132] | 0.07 µM |  | 
40 | CCO[C@@H](c1ccc([C@@H](COC)CC(=O)O)cc1Nc1cnc(C)nc1)C(F)(F)F [Example 81, (S)-3-(4-((S)-1-ethoxy-2,2,2-trifluoroethyl)-3-((2-methylpyrimidin-5-yl)amino)phenyl)-4-methoxybutanoic Acid] |  | 0.25 to 2 µM | 
41 | (S)-3-(3-(3-(4-cyano-3-fluorophenyl)ureido)-4-((R)-1-ethoxy-2,2,2-trifluoroethyl)phenyl)-4-methoxybutanoic acid [Example 63] | 0.02 µM | < 0.05 µM | 
42 | (S)-3-(4-((S)-1-ethoxy-2,2,2-trifluoroethyl)-3-((4-fluorophenyl)amino)phenyl)pentanoic acid [Example 48] |  | < 0.05 µM | 
